Values of other authors in patent publication US8039631B2, “Process for preparing crystalline form A of Lansoprazole” (Daewoong Pharmaceutical Co., Ltd., priority 2006, dated 2011).
Like-named read-outs stand apart in the source and are kept apart here.

Key:
[1] = not given; remark: listed apart in the source

Cc1c(OCC(F)(F)F)ccnc1C[S+]([O-])c1nc2ccccc2[nH]1 (centres unmarked) [Form A, Lansoprazole]
stability (change) when stored (stored for one year at room temperature or elevated temperature): does not change

Cc1c(OCC(F)(F)F)ccnc1C[S+]([O-])c1nc2ccccc2[nH]1 (centres unmarked) [Form B, Lansoprazole]
change in the crystalline form on storage (at elevated temperature): some change in the crystalline form | stability when stored (stored for one year at a low temperature (0° C. or lower)): high stability | conversion of Form B to Form A ([1]; at 40° C.): rapidly | conversion of Form B to Form A ([1]; at a temperature of 10° C. or lower): slowly converted to Form A
